According to ChEMBL document CHEMBL1201862, “PubChem BioAssay data set” (2004):
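Values below derive from 48-hour exposures of cells grown in 96-well plates, with endpoints linearly interpolated between the two concentrations bracketing the appropriate inhibition level. GI50: concentration for 50% inhibition of growth.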 The source made the active and inactive calls. Cut-off read from the data, not from the text of the source: active = GI50 up to about 1.1 µM and inactive = higher.

Key:
Assay in all cases: NCI anticancer screen, dose series, 48 h
786-0 = tested on: 786-0
A498 = tested on: A498
A549 = tested on: A549
ACHN = tested on: ACHN
BT-549 = tested on: BT-549
CAKI-1 = tested on: CAKI-1
CCRF-CEM = tested on: CCRF-CEM
COLO 205 = tested on: COLO 205
DU-145 = tested on: DU-145
EKVX = tested on: EKVX
HCC 2998 = tested on: HCC 2998
HCT-116 = tested on: HCT-116
HCT-15 = tested on: HCT-15
HL-60 = tested on: HL-60
HOP-62 = tested on: HOP-62
HOP-92 = tested on: HOP-92
Hs-578T = tested on: Hs-578T
K562 = tested on: K562
KM12 = tested on: KM12
LOX IMVI = tested on: LOX IMVI
M14 = tested on: M14
MCF7 = tested on: MCF7
MDA-MB-231 = tested on: MDA-MB-231
MDA-MB-435 = tested on: MDA-MB-435
MDA-N = tested on: MDA-N
MOLT-4 = tested on: MOLT-4
Malme-3M = tested on: Malme-3M
NCI-H226 = tested on: NCI-H226
NCI-H23 = tested on: NCI-H23
NCI-H460 = tested on: NCI-H460
NCI-H522 = tested on: NCI-H522
NCI/ADR-RES = tested on: NCI/ADR-RES
OVCAR-3 = tested on: OVCAR-3
OVCAR-4 = tested on: OVCAR-4
OVCAR-5 = tested on: OVCAR-5
OVCAR-8 = tested on: OVCAR-8
RPMI-8226 = tested on: RPMI-8226
RXF 393 = tested on: RXF 393
SF-268 = tested on: SF-268
SF-295 = tested on: SF-295
SF-539 = tested on: SF-539
SK-MEL-28 = tested on: SK-MEL-28
SK-MEL-2 = tested on: SK-MEL-2
SK-MEL-5 = tested on: SK-MEL-5
SK-OV-3 = tested on: SK-OV-3
SN12C = tested on: SN12C
SNB-19 = tested on: SNB-19
SR = tested on: SR
SW-620 = tested on: SW-620
T47D = tested on: T47D
TK-10 = tested on: TK-10
U-251 = tested on: U-251
UACC-257 = tested on: UACC-257
UACC-62 = tested on: UACC-62
UO-31 = tested on: UO-31
HT-29 = tested on: HT-29
IGROV-1 = tested on: IGROV-1
PC-3 = tested on: PC-3
SNB-75 = tested on: SNB-75

Measured: GI50

CC(=O)Nc1ccc(N2C(=O)/C(=C\c3cccc(Oc4ccccc4)c3)SC2c2ccccc2)cc1 (configuration not stated)
78.5 µM: HCT-15
inactive: 786-0 37.8 µM | A498 50.1 µM | A549 27.1 µM | ACHN 71 µM | BT-549 33.3 µM | CAKI-1 66.4 µM | CCRF-CEM 17.3 µM | COLO 205 70.3 µM | DU-145 27.5 µM | EKVX 42.7 µM | HCC 2998 > 100 µM | HCT-116 18.1 µM | HL-60 25.4 µM | HOP-62 22.6 µM | HOP-92 16.6 µM | Hs-578T 12.7 µM | K562 33.1 µM | KM12 24.4 µM | LOX IMVI 17.2 µM | M14 32.3 µM | MCF7 21 µM | MDA-MB-231 32.6 µM | MDA-MB-435 32.5 µM | MDA-N 18.9 µM | MOLT-4 27.9 µM | Malme-3M 28 µM | NCI-H226 22 µM | NCI-H23 26.1 µM | NCI-H460 50.7 µM | NCI-H522 23.2 µM | NCI/ADR-RES 29.5 µM | OVCAR-3 25.5 µM | OVCAR-4 32.4 µM | OVCAR-5 > 100 µM | OVCAR-8 17.1 µM | RPMI-8226 24.7 µM | RXF 393 30.4 µM | SF-268 50.6 µM | SF-295 38.5 µM | SF-539 19.3 µM | SK-MEL-28 27.4 µM | SK-MEL-2 30.4 µM | SK-MEL-5 23.7 µM | SK-OV-3 16.1 µM | SN12C 26.8 µM | SNB-19 19.8 µM | SR 21 µM | SW-620 30.8 µM | T47D 54.1 µM | TK-10 34.4 µM | U-251 14.7 µM | UACC-257 35 µM | UACC-62 22.4 µM | UO-31 82.6 µM

O=C(Nc1nnc(-c2c(Cl)c(Cl)c(Cl)c(Cl)c2-c2nc3cc(C(=O)c4ccccc4)ccc3[nH]2)o1)c1ccccc1
inactive: 786-0 16.8 µM | A498 18.2 µM | A549 14.9 µM | ACHN 19.5 µM | BT-549 23.5 µM | CAKI-1 32.3 µM | CCRF-CEM 8.36 µM | COLO 205 12.2 µM | DU-145 17.5 µM | EKVX 17.9 µM | HCT-116 23.3 µM | HL-60 11.4 µM | HOP-62 10.4 µM | HOP-92 15.5 µM | HT-29 23.8 µM | IGROV-1 13.6 µM | K562 5.78 µM | KM12 23.2 µM | LOX IMVI 15.1 µM | M14 15.4 µM | MCF7 10.9 µM | MDA-MB-231 17.7 µM | MDA-MB-435 3.89 µM | MDA-N 3.19 µM | MOLT-4 13.7 µM | NCI-H226 16.7 µM | NCI-H23 18.9 µM | NCI/ADR-RES 14 µM | OVCAR-3 15 µM | OVCAR-4 21 µM | OVCAR-5 26.4 µM | OVCAR-8 26.9 µM | PC-3 13 µM | RPMI-8226 12.4 µM | RXF 393 12.3 µM | SF-295 9.46 µM | SF-539 11.5 µM | SK-MEL-28 12.1 µM | SK-MEL-2 17.7 µM | SK-MEL-5 5.07 µM | SK-OV-3 18.9 µM | SN12C 15.3 µM | SNB-19 15.2 µM | SNB-75 15.1 µM | SR 4.9 µM | SW-620 19.9 µM | T47D 16.4 µM | TK-10 21.8 µM | U-251 13.6 µM | UACC-257 23.2 µM | UO-31 31.8 µM
9.98 µM: HCT-15

COc1cccc(OCC(=N/NC(=O)c2ccncc2)/N=C/c2ccncc2)c1
inactive: 786-0 > 100 µM | A498 > 100 µM | A549 > 100 µM | ACHN > 100 µM | BT-549 > 100 µM | CAKI-1 > 100 µM | CCRF-CEM > 100 µM | COLO 205 > 100 µM | DU-145 > 100 µM | EKVX > 100 µM | HCC 2998 > 100 µM | HCT-116 > 100 µM | HL-60 > 100 µM | HOP-62 > 100 µM | HOP-92 > 100 µM | HT-29 > 100 µM | Hs-578T > 100 µM | IGROV-1 > 100 µM | K562 > 100 µM | KM12 > 100 µM | LOX IMVI > 100 µM | M14 > 100 µM | MCF7 > 100 µM | MDA-MB-231 > 100 µM | MDA-MB-435 > 100 µM | MDA-N > 100 µM | MOLT-4 > 100 µM | Malme-3M > 100 µM | NCI-H226 > 100 µM | NCI-H23 > 100 µM | NCI-H460 > 100 µM | NCI-H522 > 100 µM | NCI/ADR-RES > 100 µM | OVCAR-3 > 100 µM | OVCAR-4 > 100 µM | OVCAR-5 > 100 µM | OVCAR-8 > 100 µM | PC-3 > 100 µM | RPMI-8226 > 100 µM | RXF 393 52 µM | SF-268 > 100 µM | SF-295 > 100 µM | SF-539 > 100 µM | SK-MEL-28 > 100 µM | SK-MEL-2 > 100 µM | SK-OV-3 > 100 µM | SN12C > 100 µM | SNB-19 > 100 µM | SW-620 > 100 µM | T47D > 100 µM | TK-10 > 100 µM | U-251 > 100 µM | UACC-257 > 100 µM | UACC-62 > 100 µM
> 100 µM: HCT-15

CCOP(=O)(OCC)/C(C#N)=C/c1ncc[nH]1
> 10 µM: HCT-15
inactive: 786-0 > 100 µM | A498 > 100 µM | A549 > 100 µM | ACHN > 100 µM | BT-549 > 100 µM | CAKI-1 > 100 µM | CCRF-CEM > 100 µM | COLO 205 > 100 µM | DU-145 > 100 µM | EKVX > 100 µM | HCC 2998 > 100 µM | HCT-116 > 100 µM | HL-60 > 100 µM | HOP-62 > 100 µM | HOP-92 > 100 µM | HT-29 > 100 µM | Hs-578T > 100 µM | IGROV-1 > 10 µM | K562 > 100 µM | KM12 > 100 µM | LOX IMVI > 100 µM | M14 > 100 µM | MCF7 > 100 µM | MDA-MB-231 > 100 µM | MDA-MB-435 > 100 µM | MDA-N > 100 µM | MOLT-4 > 100 µM | Malme-3M > 100 µM | NCI-H226 > 100 µM | NCI-H23 > 100 µM | NCI-H460 > 100 µM | NCI-H522 > 100 µM | NCI/ADR-RES > 100 µM | OVCAR-3 > 100 µM | OVCAR-4 > 100 µM | OVCAR-5 > 100 µM | OVCAR-8 > 100 µM | PC-3 > 100 µM | RPMI-8226 > 100 µM | RXF 393 > 100 µM | SF-268 > 100 µM | SF-295 > 100 µM | SF-539 8.32 µM | SK-MEL-28 > 100 µM | SK-MEL-2 > 100 µM | SK-MEL-5 > 100 µM | SK-OV-3 > 100 µM | SN12C > 100 µM | SNB-19 > 100 µM | SNB-75 > 100 µM | SR > 100 µM | SW-620 > 100 µM | U-251 > 100 µM | UACC-257 > 100 µM | UACC-62 > 100 µM | UO-31 > 100 µM

COc1ccc(/C=C2/S/C(=N\c3ccccc3)N(NC(=O)Cc3ccccc3)C2=O)cc1
> 100 µM: HCT-15
inactive: 786-0 > 100 µM | A498 > 100 µM | A549 > 100 µM | ACHN > 100 µM | BT-549 > 100 µM | CCRF-CEM > 100 µM | COLO 205 > 100 µM | DU-145 > 100 µM | EKVX > 100 µM | HCC 2998 > 100 µM | HCT-116 > 100 µM | HL-60 > 100 µM | HOP-62 > 100 µM | HOP-92 > 100 µM | HT-29 > 100 µM | Hs-578T > 100 µM | IGROV-1 > 100 µM | K562 > 100 µM | KM12 > 100 µM | M14 > 100 µM | MCF7 > 100 µM | MDA-MB-231 > 100 µM | MDA-MB-435 > 100 µM | MDA-N > 100 µM | MOLT-4 > 100 µM | NCI-H226 > 100 µM | NCI-H23 > 100 µM | NCI-H460 > 100 µM | NCI/ADR-RES > 100 µM | OVCAR-3 > 100 µM | OVCAR-4 74.3 µM | OVCAR-5 > 100 µM | OVCAR-8 > 100 µM | RPMI-8226 > 100 µM | RXF 393 > 100 µM | SF-268 > 100 µM | SF-295 > 100 µM | SF-539 > 100 µM | SK-MEL-28 > 100 µM | SK-MEL-2 > 100 µM | SK-MEL-5 > 100 µM | SK-OV-3 > 100 µM | SN12C > 100 µM | SNB-19 > 100 µM | SNB-75 > 100 µM | SW-620 > 100 µM | T47D > 100 µM | TK-10 > 100 µM | U-251 > 100 µM | UACC-257 > 100 µM | UACC-62 > 100 µM | UO-31 92.3 µM
